Experimental data as given in paper PMC6273649, “Synthesis of Novel Quaternary Ammonium Salts and Their in Vitro Antileishmanial Activity and U-937 Cell Cytotoxicity” (Molecules, 2016).

Key:
[1] = test system: U-937 cells; test: in vitro; details: U-937 cells
Method: U-937 promonocytes (CRL1593.2™) were obtained from the American Type Culture Collection (ATCC, Manassas, VA, USA), cultured in complete medium containing RPMI 1640 medium (Sigma) supplemented with 10% fetal bovine serum (FBS) (Gibco, Life Technologies, Grand Island, NY, USA) and 1% antibiotics (100 U/mL penicillin and 0.1 mg/mL streptomycin) (Sigma). Cells were maintained in standard conditions at 37 °C, 5% CO2 with change of medium every three days until use.
The cytotoxicity of compounds was assessed based on the viability of U-937 cells and evaluated by the MTT (3-(4,5-dimethylthiazol-2-yl)-2,5-diphenyltetrazolium bromide) method as described by others. Briefly, into each well of a 96-well cell-culture dishes 100,000 cells/100 μL were dispensed in RPMI-1640 supplemented with 10% FBS and 100 μL of the corresponding concentrations of the corresponding product. Six two fold serial dilutions were tested starting at 200 µg/mL (200, 100, 50, 25, 12.5 and 6.25 μg/mL). Cells were incubated at 37 °C with 5% CO2 for 72 h in the presence of compounds, and then the effect was determined by measuring the activity of the mitochondrial dehydrogenase by adding 10 µL/well of MTT solution (0.5 mg/mL) and incubating at 37 °C for 3 h. The reaction was stopped by adding 100 μL /well of 50% isopropanol solution with 10% sodium dodecyl sulfate for 30 min. Cell growth was determined based on the quantity of formazan produced, which was measured at 570 nm in a plate reader spectrophotometer (Bio-Rad, Hercules, CA, USA). Cells cultured in the absence of products were used as cell growth controls (negative control), while cells cultured in presence of amphotericin B (AmB, Sigma) and meglumine antimoniate (MA, Sanofi-Aventis, Bogotá, Colombia) were used as cytotoxicity controls (positive control). Each concentration was tested in triplicate in at least two independent experiments.
Cytotoxicity was determined according to the percentages of cell growth (viability) obtained for each tested compound or medium alone. Percentages of viability were calculated first using Equation (1): % Viability = (O.D. of treated cells)/(O.D. of untreated cells) × 100(1) where the O.D. of the untreated cells corresponds to 100% viability. Then, the percentage of cell growth inhibition was calculated using Equation (2): % Cell growth inhibition = 100 − % Viability(2)
The degree of cytotoxicity was established as convenient according to the LC50 values, using our own scale: high cytotoxicity: LC50 < 100 μg/mL, moderate cytotoxicity: 100 μg/mL < LC50 < 200 μg/mL; and potential non-cytotoxicity: LC50 > 200 μg/mL.

[2] = test system: intracellular amastigotes of L. (V) panamensis-pIR-eGFP; test: organism not typed; assay type: cell-based; details: L. (V) panamensis in U-937 cells, flow cytometry, 72 h; mean ± standard deviation
Method: (§1) Virulent L. (V) panamensis MHOM/CO/87/UA140 strain transfected with green fluorescent protein gene called L. (V) panamensis-pIR-eGFP was maintained by successive passaging in golden hamsters (Mesocricetus auratus). Briefly, amastigotes were aspirated from cutaneous lesions of hamsters experimentally infected with promastigotes of L. (V) panamensis-pIR-eGFP. Samples were cultured in biphasic culture with Novy-MacNeal-Nicholle (NNN) medium as solid phase and PBS plus glucose, pH 6.9 as liquid phase and incubated at 26 °C to obtain promastigotes. Medium was changed every week until 2 months.
Intracellular amastigotes were obtained after infection of U-937 cells with promastigotes. Briefly, U-937 cells were dispensed in 24-well plates at a concentration of 300,000 cells/well and were treated with 1 µM of phorbol myristate acetate (PMA) (Sigma) for 48 h at 37 °C. Then, cells were infected with promastigotes in stationary growth phase (day 5) at a ratio of 1:15 cell/parasite and incubated for 3 h at 34 °C in 5% CO2. […] After 24 h of infection, cells were ready to be used in antileishmanial testing assay as described below.
The effect of compounds against intracellular amastigotes of L. (V) panamensis-pIR-eGFP was evaluated by flow cytometry using the methodology described by others. […] Infected and treated cells were maintained at 34 °C and 5% CO2 for 72 h. After 72 h, cells were washed twice with 1 mL of cold PBS and cells were removed from the bottom plate with a trypsin/EDTA ([…]) solution. Recovered cells were centrifuged at 1100 rpm for 10 min at 4 °C, the supernatant was discarded and cells were washed with 1 mL of cold PBS and centrifuged at 1100 rpm for 10 min at 4 °C. Supernatant was discarded and cells were suspended in 500 μL of PBS and analyzed by flow cytometry (FC 500MPL, Cytomics, Brea, CA, USA) using histogram analyses (Figure 2). […] Each concentration of compounds was tested in triplicate in two independent experiments.
The antileishmanial activity in intracellular amastigotes was determined according to the reduction of infected cells and parasite load (viable parasites inside infected cells) obtained for each experimental condition. The percentage of infected cell inhibition and parasite load for each concentration of each compound were calculated first using Equation (3): % infection = (% infected and treated cells ÷ % infected and untreated cells) × 100(3)
And then, the percentage of infection inhibition was calculated using Equation (4): % Inhibition = 100 − % infection(4)

[3] = test system: axenic amastigotes of L. (V) panamensis; test: organism not typed; assay type: cell-based
Method: as §1
The axenic amastigotes were obtained from promastigotes cutured in Schneider’s medium, as described elsewhere. Briefly, promastigotes of L. (V) panamensis-pIR-eGFP at 5 × 10^6 parasites/mL were cultured in Schneider medium (Sigma), pH 5.4 supplemented with 20% FBS and 1% antibiotics and incubation at 26 °C. Every three days, medium was changed and temperature was increased one degree each time until it reached 32 °C at which the transformation of the promastigotes into axenic amastigotes is achieved. After three days of growing as axenic amastigotes, parasites were ready to be used in the antileishmanial testing assay as described below.
The ability of compounds to kill axenic amastigotes of L. (V) panamensis was determined based on the viability of the parasites after exposure to each compound evaluated by the MTT method following the methodology described by others. Axenic amastigotes obtained as described above were harvested, washed, and adjusted at 2 × 10^6 parasites/mL in fresh Schneider’s medium with 20% FBS. Into each well of a 96-well plate 100 µL of parasite suspension (2 × 10^5 axenic amastigotes) were dispensed and then 100 µL of each concentration of the corresponding compound were added. […] Plates were incubated at 32 °C. After 72 h of incubation, the effect of each compound was determined by adding 10 µL/well of MTT and incubating at 32 °C for 3 h. The reaction was stopped as described above and the quantity of formazan produced was measured in a plate reader spectrophotometer (Bio-Rad) set at 570 nm. Axenic amastigotes cultivated in the absence of any compound but maintained under the same conditions were used as controls for growth and viability (negative control) while parasites cultivated in the presence of MA were used as controls for leishmanicidal activity (positive control). Assays were performed at least twice with three replicates per each concentration tested.
In turn, activity of compounds with axenic amastigotes was determined according to the reduction of parasite growth percentages obtained for each experimental condition. The percentage of parasite growth was calculated first using Equation (5): % parasite growth = (O.D. treated ax. amastigotes)/(O.D. of untreated ax. amastigotes) × 100(5) where the O.D. of the untreated axenic amastigotes corresponds to 100% parasite growth. Then, the percentage of parasite growth inhibition was calculated using Equation (6): % parasite growth inhibition = 100 − % parasite growth(6)

Substance: meglumine antimoniate [MA, reference compound]
- Cytotoxicity LC50 ([1]; MTT, 72 h, mean ± standard deviation): 358.2 ± 1.7 µg/mL
- degree of cytotoxicity ([1]; authors' own scale by LC50): potentially non-cytotoxic
- Intracellular Amastigotes EC50 [2]: 6.33 ± 0.86 µg/mL
- Axenic Amastigotes EC50 ([3]; L. (V) panamensis axenic amastigotes, MTT, 72 h, mean ± standard deviation): 312.1 ± 18.6 µg/mL
- degree of leishmanicidal activity, axenic amastigotes ([3]; authors' own scale by EC50): not active
